From US20080255244A1, “CaM Kinase II Inhibitor Improves Retinoic Acid Therapy and Inhibits the Proliferation of Myeloid Leukemia Cells” (Fred Hutchinson Cancer Research Center, priority 2007, published 2008)
Entries after “also recorded” stand apart in the source; their conditions may differ.

Experiments:
[1] = tested on: autophosphorylated CaMKIIγ in TonB210.1 cells; experiment: bcr-abl induced CaMKII autophosphorylation in TonB210.1 cells (Western blot); type: cell-based; conditions: TonB210.1 deprived of IL-3 for 24 hours, compound added with doxycycline
[2] = tested on: K562 cells; experiment: K562 proliferation in liquid suspension culture (cell counts); type: cell-based, human; conditions: seeded at 5×10^4 cells/ml; cell counts
Protocol: (A) K562 cells were seeded in liquid suspension culture at 5×10^4 cells/ml in the presence or absence of the indicated concentration of compounds, and cell counts were obtained at the indicated time.
Cell lines. All leukemia cell lines are cultured at 37° in RPMI supplemented with 5% heat-inactivated fetal calf serum.

[3] = tested on: autophosphorylated CaMKIIγ in HL60 cells; experiment: Western blot of CaMKIIγ autophosphorylation in HL60 cells; type: cell-based, human; conditions: phospho-T286/7 antibody, ATRA 1 μM, TPA 0.1 μM
Protocol: (§1) FIG. 7. KN-62 regulates the differentiation of myeloid leukemia cell lines. (A) Wright Giemsa-stained HL-60 cells either (a) uninduced or treated for five days with (b) KN62 or (c) ATRA. (d) CD11b expression in HL-60 cells after five days exposure to KN62 (5 μM) or ATRA (1 μM). (B) Wright-Giemsa stained NB4 cells treated for five days with KN-62 (5 μM) and ATRA as indicated. […] (C) Cd11b expression of NB4 cells treated for five days with the indicated concentrations of RA and/or KN-62. (D) Western blots with the indicated antibodies were performed on HL60 cell lysates following incubation with KN62 for the indicated period of time. (E) Western blots of NB4 cell lysates following a five day incubation with the indicated compounds.
(§2) FIG. 9. Terminal differentiation/apoptosis of myeloid leukemia cells is associated with decreased CaMKIIγ activation. (A) Lysates from the HL60, NB4 and U937 myeloid cell lines treated with ATRA (1 μM) for the indicated period of time were subjected to Western blots. (B) Lysates from the indicated myeloid cell lines treated for five days with the indicated concentration of ATRA were subjected to Western blots. (C) Lysates from HL60 cells treated with TPA (0.1 μM) for the indicated time were subjected to Western blots. (D) Lysates from NB4 cells treated with arsenic trioxide (1 uM) for the indicated time were subjected to Western blots.
(§3) Protein extracts, Western blotting and co-immunoprecipitations. Westerns and co-immunoprecipitations were performed as previously detailed (Si, J., and Collins, S. J., Blood 100:4401-4409 (2002)).
(§4) Antibodies and Western blots. Protein extracts, immunoprecipitations and Western blots were performed as previously detailed (Si J, Collins S J. IL-3-induced enhancement of retinoic acid receptor activity is mediated through Stat5, which physically associates with retinoic acid receptors in an IL-3-dependent manner. Blood 100: 4401-9 (2002)). Antibodies against CaMKI, CaMKIIγ, CaMKIV, c-myc, Stat3, Stat5, calmodulin, as well as the phosphospecific CaMKII (T286, 287) and phosphospecific CaMKI (T177) antibodies were from Santa Cruz Biotechnology. Antibodies against phospho-Stat1 (Ser727), phospho-Stat3 (Ser727 and Tyr 705), phospho-Stat5 (Tyr 694), phospho-p44/42 MAP kinase (Thr202/Tyr 204), p44/42 MAP kinase, phospho-p38 MAP kinase (Thr 180/Tyr 182), phospho-GSK3β (Ser9) were from Cell Signaling Technology. Antibodies against Stat1, GSK3β, β-catenin, PP2Ac, and cyclin D1 were from BD Biosciences.

[4] = tested on: Stat3 transcriptional activity in K562 cells; experiment: Stat3 response element luciferase reporter in K562 cells; type: cell-based, human; conditions: 48 hours of culture
Protocol: FIG. 13. Stat3 is directly phosphorylated and activated by CaMKIIγ at Ser727. (A, i). Cell lysates from the indicated human leukemia cell lines were subjected to Western blots utilizing the indicated Stat3 antibodies. ii). Cell lysates from the same primary AML samples depicted in FIG. 1B were subjected to Western blots utilizing the indicated Stat3 antibodies. B). The IL-3 dependent TonB210.1 cells were deprived of IL-3 for 24 hours. The cells were then treated with the indicated compounds immediately prior to the addition of doxycycline. After an additional 24 hours cell lysates were harvested and subjected to Western blots with the indicated Stat3 antibodies. C). K562 cells were electroporated with a luciferase reporter driven by a Stat3 response element. The indicated concentrations of KN93 and the Stat 3 inhibitor, cucurbitacin I, were added and relative luciferase activity determined on cell lysates following 48 hours of culture. D, i) K562 cell lysates were immunoprecipitated with control IgG or a Stat3 antibody. […]
Transient transfections and luciferase assays. […] Stat3 transcriptional activity was determined in K562 cells transfected with the pSIE-tk-LUC luciferase reporter which harbors a Stat3 binding site ([…]). […]

[5] = tested on: autophosphorylated CaMKIIγ in K562 cells; experiment: Western blot of CaMKIIγ autophosphorylation in K562 cells; type: cell-based, human; conditions: for activated, autophosphorylated CaMKIIγ level: gleevec 5 uM, ATRA five days
Protocol: as §2
FIG. 10. Inhibiting bcr-abl activity/expression inhibits CaMKIIγ activation. (A) Lysates from K562 cells undergoing growth arrest following treatment with gleevec (5 uM) for the indicated times were subjected to Western blots. (B) Lysates from TonB210.1 cells depleted of doxycycline for the indicated period of time were subjected to Western blots. (C) IL-3 dependent TonB210.1 cells were deprived of IL-3 for 24 hours (lane 1). The cells were then treated with the indicated compounds simultaneously with the addition of doxycycline (lanes 2-8). After 24 hours cell lysates were harvested and subjected to Western blots with the indicated CaMKII antibodies. (D) K562 cells were cultured for 48 hours with the indicated chemical inhibitors of specific signal transduction pathways. Cell lysates were harvested and subjected to Western blot analysis.
FIG. 12. CaMKII regulates multiple signal transduction pathways in myeloid cells. (A,B) Lysates from K562 cells cultured for the indicated time in KN93 were subjected to Western blots. (C) The K562 cells transduced as described in Materials and Methods with either (i) the doxycycline (DOX) inducible expression vector/transactivator harboring the full length, Lys^43 mutated, kinase dead CaMKIIγ (kdCaMKIIγ (Tet-on)) or (ii) the CaMKII shRNA generating plasmids, were cultured in liquid suspension in the presence or absence of DOX as indicated, and cell counts obtained after 48 hours. (D) Lysates from K562 cells transduced with the indicated vectors were subjected to Western blots utilizing the indicated antibodies. For lanes 2 and 4 doxycycline (DOX) treatment was for two days.
as §4

[6] = tested on: RAR transcriptional activity in HL60 cells; experiment: RARE-driven luciferase reporter in HL60 cells; type: cell-based, human; conditions: six hours after treatment with ionomycin and ATRA
Protocol: FIG. 1. CaM kinase isoform expression in hematopoietic cells. (A) The activity of an ATRA-responsive luciferase reporter (βRARE-tk-Luc, 25 μg) was assessed in electroporated HL60 cells six hours after treatment with the indicated concentrations of ionomycin and ATRA. (B) The activity of the luciferase reporter (βRARE-tk-Luc, 25 μg) was assessed in HL60 six hours after treatment with KN62 (5 uM), KN93 (5 uM) and ATRA (1 uM). (C) Western blots were performed utilizing the indicated antibodies. F9 (column 6) is a mouse embryonal carcinoma cell line. BaF3 (column 7) is a cultured pre-B cell line. BM cells (column 8) are kit-ligand dependent normal murine hematopoietic precursors. PT67 murine fibroblasts individually transduced with either rat CaMKIIα, human CaMKIα or human CaMKIV (column 9) together with brain lysates (column 1) serve as positive controls for the respective antibodies. (D) CaMK assays were performed on HL-60 cell lysates immunoprecipitated with the indicated antibodies.
Transient transfections and luciferase assays. Murine PT67 fibroblasts were transfected utilizing calcium phosphate precipitation. All hematopoietic cell lines were transiently transfected by electroporation as previously detailed (Johnson, B. et al., Molecular and Cellular Biology 19:3372-3382 (1999)). In the transient transfections the LXSN vector (M28248) served as the expression vector for the wild type and site-directed mutagenized CaMKII and RARα coding region cDNAs. Human cDNA homologous to the coding region of rat CaMKIINα, a CaMKII inhibitory protein, was obtained by RT-PCR from HL60 RNA and cloned into the LXSN vector. The RA-responsive luciferase reporter harbors the RARE from the RARβ2 promoter as previously detailed (Si, J., and Collins, S. J., Blood 100:4401-4409 (2002)). The PON838 plasmid, a β-galactosidase reporter driven by the β-actin promoter, was used as an internal control to determine transfection efficiency for calculating relative luciferase activity.

[7] = tested on: autophosphorylated CaMKIIγ in NB4 cells; experiment: Western blot of CaMKIIγ autophosphorylation in NB4 cells; type: cell-based, human; conditions: single agent, ATRA 1 μM, arsenic trioxide 1 uM
Protocol: as §1, §2, §3, §4

O=C(O)c1ccc2c3c1cccc3c(=O)n1c3ccccc3nc21 [STO609]
bcr-abl (tet/doxycycline) restored CaMKII autophosphorylation [1]: not inhibited
K562 cell proliferation [2]: did not significantly inhibit; also recorded: minimal effects

CCCCCCCCCCCCCC(=O)O[C@@H]1[C@@H](C)[C@@]2(O)[C@@H](C=C(CO)C[C@]3(O)C(=O)C(C)=C[C@@H]23)[C@@H]2C(C)(C)[C@]12OC(C)=O [TPA, phorbol myristate acetate]
activated, autophosphorylated CaMKIIγ level [3]: marked decrease

CC(C)(O)/C=C/C(=O)[C@](C)(O)[C@H]1[C@H](O)C[C@@]2(C)[C@@H]3CC=C4[C@@H](C=C(O)C(=O)C4(C)C)[C@]3(C)C(=O)C[C@]12C [cucurbitacin I]
Stat3 responsive reporter activity [4]: inhibit

Cc1ccc(NC(=O)c2ccc(CN3CCN(C)CC3)cc2)cc1Nc1nccc(-c2cccnc2)n1 [imatinib]
total CaMKIIγ level [5]: no significant change
activated, autophosphorylated CaMKIIγ level [5]: rapid, marked decrease
activated, autophosphorylated CaMKIIγ level ([5]; listed as gleevec): downregulation
K562 cell proliferation [2]: proliferative arrest

C[C@H](CCC(=O)O)C[C@H](C)C[C@H](C)C(=O)/C=C(\O)[C@H](C)C[C@H](C)C/C=C/[C@@H](C)[C@@H](O)[C@@H](C)[C@@H](O)C[C@@H]1CC[C@@](C)([C@H]2CC[C@@](C)([C@@H](C)O)O2)O1 [ionomycin]
ATRA-induced activity of RARE-driven luciferase reporter [6]: inhibited

KN92
K562 cell proliferation [2]: did not significantly inhibit

arsenic trioxide
activated, autophosphorylated CaMKIIγ level [7]: downregulation
